Seven compounds from ChEMBL document CHEMBL5532639, “Heterocyclic pyrimidine derivatives as promising antibacterial agents” (Eur J Med Chem, 2023) can be followed below.

The test system of test [1] is Salmonella typhimurium. The test is described as follows: Antibacterial activity against Salmonella typhimurium DT104 assessed as reduction in bacterial growth inhibition measured after 24 hrs by Mueller Hinton Agar dilution method. In kind it is functional, Salmonella enterica subsp. enterica serovar Typhimurium. To be noted: Salmonella enterica.
In a further test the test system is Vibrio parahaemolyticus. The test is described as follows: Antibacterial activity against Vibrio parahaemolyticus assessed as reduction in bacterial growth inhibition measured after 24 hrs by Mueller Hinton Agar dilution method. It is filed as functional. Background: In agar dilution the substance is mixed into plates at graded concentrations.
Test [2] has as its system Salmonella enterica subsp. enterica serovar Paratyphi B. The test is described as follows: Antibacterial activity against Salmonella paratyphi B CICC 21495 assessed as reduction in […]. To be noted: time lower 48 hrs. In kind it is functional.
A further test concerns Edwardsiella tarda. The test is described as follows: Antimicrobial activity against Edwardsiella tarda assessed as inhibition of microbial growth incubated for 18 hrs by CLSI protocol based Mueller-Hinton broth assay. It is filed as functional.
Test [3] deals with Vibrio cholerae. The test is described as follows: Antibacterial activity against Vibrio cholerae assessed as inhibition of bacterial growth incubated for 24 hrs by broth microdilution method. It is filed as functional. (In general: In broth dilution the organism is exposed to a series of concentrations in liquid medium.)
In test [4] the test system is Staphylococcus aureus. The test is described as follows: Antimicrobial activity against Staphylococcus aureus assessed as inhibition of microbial growth incubated for 18 hrs by CLSI protocol based Mueller-Hinton broth assay. It is filed as functional.
The test system of test [5] is Escherichia coli. The test is described as follows: Antimicrobial activity against Escherichia coli assessed as inhibition of microbial growth incubated for 18 hrs by CLSI protocol based Mueller-Hinton broth assay. It is filed as functional.
Test [6] has as its system Vibrio cholerae. The test is described as follows: Antibacterial activity against Vibrio cholerae measured after 18 to 20 hrs by broth microdilution method. It is filed as functional. The settings on record: time 18-20 hrs.
Another test relates to Enterococcus faecalis. The test is described as follows: Antimicrobial activity against Enterococcus faecalis assessed as inhibition of microbial growth incubated for 18 hrs by CLSI protocol based Mueller-Hinton broth assay. It is filed as functional.
Test [7] concerns Salmonella typhimurium. The test is described as follows: Antimicrobial activity against Salmonella typhimurium DT104 assessed as inhibition of microbial growth incubated for 18 hrs by CLSI protocol based Mueller-Hinton broth assay. In kind it is functional, Salmonella enterica subsp. enterica serovar Typhimurium. To be noted: Salmonella enterica.
Test [8] relates to Pseudomonas aeruginosa. The test is described as follows: Antimicrobial activity against Pseudomonas aeruginosa assessed as inhibition of microbial growth incubated for 18 hrs by CLSI protocol based Mueller-Hinton broth assay. It is filed as functional.
Another test concerns Klebsiella pneumoniae. The test is described as follows: Antimicrobial activity against Klebsiella pneumoniae assessed as inhibition of microbial growth incubated for 18 hrs by CLSI protocol based Mueller-Hinton broth assay. It is filed as functional.
Test [9] deals with Staphylococcus epidermidis. The test is described as follows: Antimicrobial activity against Staphylococcus epidermidis assessed as inhibition of microbial growth incubated for 18 hrs by CLSI protocol based Mueller-Hinton broth assay. It is filed as functional.
A further test concerns Salmonella enterica. The test is described as follows: Antimicrobial activity against Salmonella enterica assessed as inhibition of microbial growth incubated for 18 hrs by CLSI protocol based Mueller-Hinton broth assay. In kind it is functional.
The test system of another test is Aeromonas hydrophila. The test is described as follows: Antibacterial activity against Aeromonas hydrophila assessed as inhibition of microbial growth incubated for 24 hrs by CLSI protocol based Mueller-Hinton broth assay. In kind it is functional.
The subject of test [10] is Vibrio cholerae. The test is described as follows: Antibacterial activity against Vibrio cholerae assessed as reduction in bacterial growth measured after 18 to 20 hrs by broth microdilution method. It is filed as functional. To be noted: time 18-20 hrs.
The test system of test [11] is Bacillus subtilis. The test is described as follows: Antibacterial activity against Bacillus subtilis assessed as reduction in bacterial growth incubated for 24 hrs by CLSI protocol based Mueller-Hinton broth assay. It is filed as functional.
The subject of a further test is Shigella sonnei. The test is described as follows: Antibacterial activity against Shigella sonnei assessed as inhibition of bacterial growth measured after 18 to 20 hrs by broth microdilution method. It is filed as functional. To be noted: time 18-20 hrs.
The test system of another test is Shigella boydii. The test is described as follows: Antibacterial activity against Shigella boydii assessed as inhibition of bacterial growth measured after 18 to 20 hrs by broth microdilution method. It is filed as functional. The settings on record: time 18-20 hrs.
The test system of the next test is Plesiomonas shigelloides. The test is described as follows: Antibacterial activity against Plesiomonas shigelloides assessed as inhibition of bacterial growth measured after 18 to 20 hrs by broth microdilution method. The settings on record: time 18-20 hrs. In kind it is functional.
A further test has as its system Providencia rettgeri. The test is described as follows: Antibacterial activity against Providencia rettgeri assessed as bacterial growth inhibition incubated for 18 hrs by CLSI protocol based Mueller-Hinton broth assay. It is filed as functional.
The subject of the next test is Shigella flexneri. The test is described as follows: Antibacterial activity against Shigella flexneri assessed as inhibition of bacterial growth incubated for 24 hrs by broth microdilution method. In kind it is functional.
The subject of test [12] is Proteus vulgaris. The test is described as follows: Antimicrobial activity against Proteus vulgaris assessed as microbial growth inhibition incubated for 24 hrs by broth microdilution method. It is filed as functional.
A further test concerns Enterobacter sp. The test is described as follows: Antibacterial activity against Enterobacter sp. assessed as inhibition of bacterial growth. In kind it is functional.
The test system of test [13] is Morganella morganii. The test is described as follows: Antibacterial activity against Morganella morganii UM869 incubated for 16 to 18 hrs by broth microdilution method. In kind it is functional. The settings on record: time 16-18 hrs.
In the next test the test system is Citrobacter freundii. The test is described as follows: Antibacterial activity against multidrug-resistant Citrobacter freundii assessed as bacterial growth inhibition incubated for 20 to 22 hrs by CLSI based analysis. It is filed as functional. The settings on record: time 20-22 hrs.
For test [14], the system named is Morganella morganii. The test is described as follows: Antibacterial activity against Morganella morganii UM573 assessed as bacterial growth inhibition incubated for 20 to 22 hrs by CLSI based analysis. To be noted: time 20-22 hrs. It is filed as functional.
For another test, the system named is Salmonella paratyphi. The test is described as follows: Antibacterial activity against Salmonella paratyphi A CICC 21501 incubated overnight by standard microtiter dilution method. It is filed as functional, Salmonella enterica subsp. enterica serovar Paratyphi A. The settings on record: Salmonella enterica.
For test [15], the system named is Bacillus subtilis. The test is described as follows: Antibacterial activity against Bacillus subtilis assessed as zone of inhibition at 50 microg/ml by cup plate analysis. In kind it is functional. The settings on record: read-out: IZ.
For a further test, the system named is Bacillus pumilus. The test is described as follows: Antibacterial activity against Bacillus pumilus assessed as zone of inhibition at 50 microg/ml by cup plate analysis. In kind it is functional. The settings on record: read-out: IZ.
Test [16] relates to Escherichia coli. The test is described as follows: Antibacterial activity against Escherichia coli assessed as zone of inhibition at 50 microg/ml by cup plate analysis. It is filed as functional. To be noted: read-out: IZ.
Test [17] relates to Proteus vulgaris. The test is described as follows: Antibacterial activity against Proteus vulgaris assessed as zone of inhibition at 50 microg/ml by cup plate analysis. It is filed as functional. To be noted: read-out: IZ.
Another test relates to Enterococcus raffinosus. The test is described as follows: Antibacterial activity against Enterococcus raffinosus assessed as bacterial growth inhibition incubated for 24 hrs by CLSI protocol based Mueller-Hinton broth assay. It is filed as functional.
Test [18] deals with Staphylococcus aureus. The test is described as follows: Antibacterial activity against Staphylococcus aureus assessed as bacterial growth inhibition incubated for 24 hrs by CLSI protocol based Mueller-Hinton broth assay. It is filed as functional.
Test [19] has as its system Bacillus subtilis. The test is described as follows: Antibacterial activity against Bacillus subtilis ATCC 465 assessed as reduction in bacterial growth measured after 24 hrs by Mueller-Hinton broth assay. It is filed as functional.
The test system of test [20] is Pseudomonas aeruginosa. The test is described as follows: Antibacterial activity against Pseudomonas aeruginosa ATCC 85327 assessed as reduction in bacterial growth measured after 24 hrs by Mueller-Hinton broth assay. It is filed as functional.
For test [21], the system named is Staphylococcus aureus. The test is described as follows: microbe, parasite or virus in culture. The settings on record: ATCC 25923, 24 h.
Description: Antibacterial activity against Staphylococcus aureus ATCC 25923 assessed as reduction in bacterial growth measured after 24 hrs by Mueller-Hinton broth assay
For test [22], the system named is Escherichia coli. The test is described as follows: microbe, parasite or virus in culture. To be noted: ATCC 25922, 24 h.
Description: Antibacterial activity against Escherichia coli ATCC 25922 assessed as reduction in bacterial growth measured after 24 hrs by Mueller-Hinton broth assay
The test system of test [23] is Bacillus subtilis. The test is described as follows: Antibacterial activity against Bacillus subtilis assessed as inhibition of bacterial growth incubated for 4 to 20 hrs by resazurin based microplate reader analysis. It is filed as functional. The settings on record: time 4-20 hrs.
In test [24] the test system is Staphylococcus aureus. The test is described as follows: Antibacterial activity against Staphylococcus aureus assessed as inhibition of bacterial growth incubated for 4 to 20 hrs by resazurin based microplate reader analysis. In kind it is functional. To be noted: time 4-20 hrs. For orientation: The colour change of resazurin is a common sign of viable cells or microbes.

Test [25] deals with Escherichia coli. The test is described as follows: Antibacterial activity against Escherichia coli assessed as inhibition of bacterial growth incubated for 4 to 20 hrs by resazurin based microplate reader analysis. In kind it is functional. To be noted: time 4-20 hrs.
The test system of test [26] is Pseudomonas aeruginosa. The test is described as follows: Antibacterial activity against Pseudomonas aeruginosa assessed as inhibition of bacterial growth incubated for 4 to 20 hrs by resazurin based microplate reader analysis. In kind it is functional. The settings on record: time 4-20 hrs.

Molecules are shown by their SMILES. In brackets after ≈: the same amount, converted by molar mass.

For the compound `Cc1cc(NS(=O)(=O)c2ccc(N)cc2)no1` [SULFAMETHOXAZOLE], the MIC was 5000 µg/mL (≈ 19.7 mM) in the test with Salmonella typhimurium [1]; 1250 µg/mL (≈ 4.94 mM) in the test with Vibrio parahaemolyticus; 5000 µg/mL (≈ 19.7 mM) in test [2]; 5000 µg/mL with Edwardsiella tarda; more than 5000 µg/mL in the test with Vibrio cholerae [3]; 5000 µg/mL in the test with Staphylococcus aureus [4]. The MIC was 2500 µg/mL with Escherichia coli [5]; 312 µg/mL (≈ 1.23 mM) with Vibrio cholerae [6]; 5000 µg/mL in the test with Enterococcus faecalis; 2500 µg/mL in the test on Salmonella typhimurium [7]; 78.1 µg/mL in the test on Pseudomonas aeruginosa [8]; 2500 µg/mL with Klebsiella pneumoniae. The MIC stood at 2500 µg/mL in test [9]; 2500 µg/mL with Salmonella enterica; 2500 µg/mL in the test on Aeromonas hydrophila; 5000 µg/mL (≈ 19.7 mM) in the test with Vibrio cholerae [10]; 5000 µg/mL (≈ 19.7 mM) in the test with Bacillus subtilis [11]; 2500 µg/mL (≈ 9.87 mM) with Shigella sonnei. Moreover, the MIC in the test with Shigella boydii turned out to be 2500 µg/mL (≈ 9.87 mM); in the test with Plesiomonas shigelloides it was 5000 µg/mL (≈ 19.7 mM); with Providencia rettgeri, 2500 µg/mL (≈ 9.87 mM); in the test on Shigella flexneri, 2500 µg/mL (≈ 9.87 mM); in the test on Proteus vulgaris [12] it was 2500 µg/mL (≈ 9.87 mM); in the test on Enterobacter sp. it was 1250 µg/mL (≈ 4.94 mM). In addition, the MIC was 2500 µg/mL (≈ 9.87 mM) with Morganella morganii [13], 5000 µg/mL (≈ 19.7 mM) in the test on Citrobacter freundii, 5000 µg/mL (≈ 19.7 mM) in the test with Morganella morganii [14] and 2500 µg/mL (≈ 9.87 mM) with Salmonella paratyphi.
Consider `CN(C)c1ccc(-c2cc(-c3ccsc3)nc(N)n2)cc1`, for which the zone of inhibition at 50 µg/mL in the test on Bacillus subtilis [15] turned out to be 15 mm; in the test on Bacillus pumilus, 12 mm; in the test with Escherichia coli [16], 11 mm; in the test on Proteus vulgaris [17] it was 12 mm.
On to `COc1ccc(-c2nc(-c3ccccc3)nc3[nH]nc(N)c23)cc1`, for which the figures for the MIC in the test on Enterococcus raffinosus and with Staphylococcus aureus [18] were 14.2 µg/mL (≈ 0.0447 mM) and 4.2 µg/mL (≈ 0.0132 mM), respectively.
For the compound `N#Cc1nc2[nH]c(=O)[nH]c(=O)c2c(-c2ccc(Cl)cc2)c1N`, the MIC was found to be 8 µg/mL (≈ 0.0255 mM) with Bacillus subtilis [19], 512 µg/mL (≈ 1.63 mM) in the test with Pseudomonas aeruginosa [20], 2 µg/mL (≈ 0.00638 mM) against Staphylococcus aureus [21] and 512 µg/mL (≈ 1.63 mM) against Escherichia coli [22].
`Nc1nc(-c2ccsc2)cc(-c2ccc(Cl)cc2Cl)n1`: the zone of inhibition at 50 µg/mL is 16 mm in the test on Bacillus subtilis [15], 13 mm in the test on Bacillus pumilus, 12 mm in the test on Escherichia coli [16] and 15 mm with Proteus vulgaris [17].
Turning to `CC1(C)S[C@@H]2[C@H](NC(=O)[C@H](N)c3ccc(O)cc3)C(=O)N2[C@H]1C(=O)O` [AMOXICILLIN], the MIC in the test with Bacillus subtilis [23] was 0.39 µg/mL (≈ 0.00107 mM); in the test with Staphylococcus aureus [24] it was 0.39 µg/mL (≈ 0.00107 mM); with Escherichia coli [25], 0.5 µg/mL (≈ 0.00137 mM); in the test with Pseudomonas aeruginosa [26], 1 µg/mL (≈ 0.00274 mM).
With `Nc1nc(-c2ccc(F)cc2)cc(-c2ccsc2)n1`, the zone of inhibition at 50 µg/mL with Bacillus subtilis [15] came to 17 mm; in the test on Bacillus pumilus, 14 mm; with Escherichia coli [16], 13 mm; with Proteus vulgaris [17], 14 mm.
